Results published in the NIST ThermoML archive (doi:10.1016/j.fluid.2015.04.017).

Assay: refractive index (Na D-line) (dimensionless); xn = mol fraction of the nth substance listed
Conditions: 101 kPa, Liquid, Standard Abbe refractometry

CCOC(=O)C(C)O (stereo not drawn) [DL-ethyl lactate] + Cc1ccccc1
refractive index
Conditions	x1 = 0.1001	x1 = 0.2001	x1 = 0.3	x1 = 0.4	x1 = 0.4998	x1 = 0.6001	x1 = 0.7	x1 = 0.7999	x1 = 0.9	x1 = 1
288.15 K	1.48891	1.47943	1.47043	1.46159	1.45318	1.44507	1.43735	1.42997	1.42267	1.41537
293.15 K	1.48604	1.47659	1.46764	1.45886	1.45051	1.44249	1.43485	1.42751	1.42032	1.41307
298.15 K	1.48316	1.47373	1.46482	1.45613	1.44784	1.43988	1.43231	1.42508	1.41794	1.41076
303.15 K	1.4803	1.47091	1.46199	1.45336	1.44515	1.43728	1.4298	1.42263	1.41555	1.40843
308.15 K	1.47745	1.46812	1.45914	1.45069	1.44254	1.43474	1.42731	1.42018	1.41313	1.4061
313.15 K	1.47462	1.46532	1.45628	1.44801	1.4399	1.43218	1.4248	1.41773	1.4107	1.40374
318.15 K	1.47184	1.46262	1.45368	1.44558	1.4376	1.42987	1.42243	1.41531	1.40819	1.40136
323.15 K	1.46909	1.45995	1.45131	1.44313	1.43523	1.42752	1.42006	1.41291	1.40578	1.39898
